Experimental data taken from PubChem BioAssay AID1845208 (Molecular Pharmacology Branch, DTP, NCI, 2023).

System: NCI-H196 SCLC complex tumor spheroid viability
Test: Anticancer human tumor NCI-H196 cell line growth inhibition;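 also: spheroids exposed to compounds for 7 days before readout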;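 as to viability, T/C: 100% = DMSO vehicle control wells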
Conditions: for IC50: curve of first compound; for viability, T/C: stronger effect = lower value
Source text: Multicellular complex tumor spheroid response to DNA repair inhibitors in combination with DNA-damaging drugs
This study explores the anticancer activities of DNA-damaging drugs and inhibitors of DNA damage repair, both as single agents and in combinations. Complex tumor spheroids comprised of malignant cells, endothelial cells and mesenchymal stem cells served as an in vitro model for human solid tumors. This model system incorporates physiologically relevant features and patient-derived or established malignant cell lines with clinically relevant genetic alterations from many tumor types. Twenty-six patient-derived or established malignant cell lines were evaluated representing sarcoma, melanoma, small cell lung cancer (SCLC), non-small cell lung cancer (NSCLC), as well as bladder, ovarian and pancreatic cancers. The concentration ranges selected for each drug and investigational agent were based upon clinically achievable concentrations if the clinical Cmax of the agent was known.
Compounds. The drugs and compounds olaparib (NSC753686), talazoparib (NSC767125), berzosertib (NSC777718), elimusertib (NSC800525), nedisertib (NSC802822), VX-984 (NSC792969), AZD-1390 (NSC803789), temozolomide (NSC362856), topotecan (NSC609699), trabectedin (NSC813783), staurosporine (NSC755774), and gemcitabine (NSC613327) were obtained from the National Cancer Institute (NCI) Developmental Therapeutics Program Chemical Repository. The FDA-approved anticancer drug set is available from the Developmental Therapeutics Program at https://dtp.cancer.gov/organization/dscb/obtaining/available_plates.htm. […] The stock solutions were prepared in dimethyl sulfoxide (DMSO, Sigma-Aldrich, St. Louis, MO, cat. D2650) at 400-fold the tested concentration and stored at -70 degrees C. Prior to their use, the stock solutions were diluted in fresh medium and the final DMSO concentration in the assay was 0.25% (v/v). All drugs and investigational agents were tested over a range starting from a high concentration at or near the clinical Cmax and decreasing in half-log increments. If the clinical Cmax for an agent had not been determined, the highest concentration tested was 10 microM.
Cell Lines. The patient-derived cancer cell (PDC) lines: 156681-154-R-J1-PDC, 283228-195-R-J1-PDC, 287954-098-R-J1-PDC, 292921-168-R-J2-PDC, 349418-098-R-PDC, 425362-245-T-J1-PDC, 556581-035-R-J1-PDC, and BL0293-F563-PDC were received from the NCI Patient-Derived Models Repository (PDMR, https://pdmr.cancer.gov). The established cell lines HS-SY-2 (RRID:CVCL_8719), MPNST, and SYO-1 (RRID:CVCL_7146) were obtained from the Sloan Kettering Institute. The alveolar soft parts sarcoma cell line ASPS-1 (RRID:CVCL_S738) was established at the NCI and grown from internal seed stocks. The following established cell lines were purchased from the American Type Culture Collection (ATCC, Manassas, VA): G-401 (ATCC, cat. CRL-1441, RRID:CVCL_0270), SW982 (ATCC, cat. HTB-93, RRID:CVCL_1734), VA-ES-BJ (ATCC, cat. CRL-2138, RRID:CVCL_1785), NCI-H719 (ATCC, cat. CRL-5837, RRID:CVCL_1582), NCI-H196 (ATCC, cat. CRL-5823, RRID:CVCL_1509), NCI-H841 (ATCC, cat. CRL-5845, RRID:CVCL_1595), NCI-H1618 (ATCC, cat. CRL-5879, RRID:CVCL_1480), NCI-H1876 (ATCC, cat. CRL-5902, RRID:CVCL_1503), DMS 114 (ATCC, cat. CRL-2066; RRID:CVCL_1174), NCI-H211 (ATCC, cat. CRL-5824; RRID:CVCL_1529), and SW 1271 (ATCC, cat. CRL-2177, RRID:CVCL_1716). The small cell lung cancer cell line COR-L88 was purchased from Sigma-Aldrich (cat. 92031917-1VL, RRID:CVCL_1141). The non-small cell lung cancer cell lines NCI-H226 (RRID:CVCL_1544) and NCI-H322M (RRID:CVCL_1557) were established at the NCI and grown from internal seed stocks. Pooled donor human umbilical vein endothelial cells (HUVEC, Lonza, cat. CC-2519) and human mesenchymal stem cells (hMSC, Lonza, cat. PT-2501) were purchased from Lonza (Walkersville, MD).
Cell Culture. All cells were maintained in an incubator at 37 degrees C and 5% CO2 with 95% humidity. […]

[1] = second compound 0.003 µM, first compound 0.00949 µM
[2] = second compound 0.003 µM, first compound 0.03 µM
[3] = second compound 0.003 µM, first compound 0.0949 µM
[4] = second compound 0.003 µM, first compound 0.3 µM
[5] = second compound 0.003 µM, first compound 0.949 µM
[6] = second compound 0.003 µM, first compound 3 µM
[7] = second compound 0.00949 µM, first compound 0.00949 µM
[8] = second compound 0.00949 µM, first compound 0.03 µM
[9] = second compound 0.00949 µM, first compound 0.0949 µM
[10] = second compound 0.00949 µM, first compound 0.3 µM
[11] = second compound 0.00949 µM, first compound 0.949 µM
[12] = second compound 0.00949 µM, first compound 3 µM
[13] = second compound 0.03 µM, first compound 0.00949 µM
[14] = second compound 0.03 µM, first compound 0.03 µM
[15] = second compound 0.03 µM, first compound 0.0949 µM
[16] = second compound 0.03 µM, first compound 0.3 µM
[17] = second compound 0.03 µM, first compound 0.949 µM
[18] = second compound 0.03 µM, first compound 3 µM
[19] = second compound 0.0949 µM, first compound 0.00949 µM
[20] = second compound 0.0949 µM, first compound 0.03 µM
[21] = second compound 0.0949 µM, first compound 0.0949 µM
[22] = second compound 0.0949 µM, first compound 0.3 µM
[23] = second compound 0.0949 µM, first compound 0.949 µM
[24] = second compound 0.0949 µM, first compound 3 µM
[25] = second compound 0.3 µM, first compound 0.00949 µM
[26] = second compound 0.3 µM, first compound 0.03 µM
[27] = second compound 0.3 µM, first compound 0.0949 µM
[28] = second compound 0.3 µM, first compound 0.3 µM
[29] = second compound 0.3 µM, first compound 0.949 µM
[30] = second compound 0.3 µM, first compound 3 µM

| Compound | IC50 (second compound 0.003 µM) [nM] | IC50 (second compound 0.00949 µM) [nM] | IC50 (second compound 0.03 µM) [nM] | IC50 (second compound 0.0949 µM) [nM] | IC50 (second compound 0.3 µM) [nM] | viability, T/C [1] [%] | viability, T/C [2] [%] | viability, T/C [3] [%] | viability, T/C [4] [%] | viability, T/C [5] [%] | viability, T/C [6] [%] | viability, T/C [7] [%] | viability, T/C [8] [%] | viability, T/C [9] [%] | viability, T/C [10] [%] | viability, T/C [11] [%] | viability, T/C [12] [%] | viability, T/C [13] [%] | viability, T/C [14] [%] | viability, T/C [15] [%] | also measured |
| --- | --- | --- | --- | --- | --- | --- | --- | --- | --- | --- | --- | --- | --- | --- | --- | --- | --- | --- | --- | --- | --- |
| CNCc1ccc(-c2cc(-c3nc(-c4ccc(S(=O)(=O)C(C)C)cc4)cnc3N)on2)cc1 + CC[C@@]1(O)C(=O)OCc2c1cc1n(c2=O)Cc2cc3c(CN(C)C)c(O)ccc3nc2-1 | > 3000 | > 3000 | > 3000 | > 3000 | > 3000 | 101 | 102 | 101 | 94.3 | 86.2 | 76.1 | 98.5 | 99 | 112 | 95.7 | 84.1 | 78.7 | 101 | 101 | 101 | viability, T/C [16]: 93.2%; viability, T/C [17]: 76.9%; viability, T/C [18]: 81.6%; viability, T/C [19]: 99.9%; viability, T/C [20]: 104%; viability, T/C [21]: 121%; viability, T/C [22]: 88.7%; viability, T/C [23]: 89.3%; viability, T/C [24]: 75.1%; viability, T/C [25]: 94.9%; viability, T/C [26]: 93.7%; viability, T/C [27]: 92.7%; viability, T/C [28]: 75%; viability, T/C [29]: 65%; viability, T/C [30]: 57.1% |
| Cc1sc2c(c1C)C(c1ccc(Cl)cc1)=NC(CC(=O)Nc1ccc(O)cc1)c1nnc(C)n1-2 (stereo not given) + CC[C@@]1(O)C(=O)OCc2c1cc1n(c2=O)Cc2cc3c(CN(C)C)c(O)ccc3nc2-1 | 613 | 688 | 656 | 755 | 373 | 98.8 | 101 | 86.2 | 70.2 | 37.8 | 19.2 | 98.7 | 96.1 | 86.8 | 76.6 | 39.1 | 23.7 | 96.1 | 84 | 80.3 | viability, T/C [16]: 64.7%; viability, T/C [17]: 41.8%; viability, T/C [18]: 29.9%; viability, T/C [19]: 98%; viability, T/C [20]: 93.6%; viability, T/C [21]: 88.1%; viability, T/C [22]: 67.4%; viability, T/C [23]: 46%; viability, T/C [24]: 32.3%; viability, T/C [25]: 92.3%; viability, T/C [26]: 92.8%; viability, T/C [27]: 78.9%; viability, T/C [28]: 49.8%; viability, T/C [29]: 40.1%; viability, T/C [30]: 24.4% |
